Experiments:
SMMC-7721 [1] = assay: Induction of apoptosis in human SMMC7721 cells assessed as necrotic cells at 1 uM incubated for 48 hrs by Annexin-V-FITC/propidium iodide staining based flow cytometry (Rvb=1.88%); format: functional
Histone deacetylase 1 = Histone deacetylase 1 (Homo sapiens, UniProt Q13547); assay: Inhibition of human recombinant His-tagged HDAC1 (482 residues) expressed in baculovirus infected insect cells using FLUOR DE LYS SIRT1 as substrate incubated for 10 mins followed by substrate addition and measured after 30 mins by fluorescence method
Sequence of Histone deacetylase 1 (Q13547 whole entry): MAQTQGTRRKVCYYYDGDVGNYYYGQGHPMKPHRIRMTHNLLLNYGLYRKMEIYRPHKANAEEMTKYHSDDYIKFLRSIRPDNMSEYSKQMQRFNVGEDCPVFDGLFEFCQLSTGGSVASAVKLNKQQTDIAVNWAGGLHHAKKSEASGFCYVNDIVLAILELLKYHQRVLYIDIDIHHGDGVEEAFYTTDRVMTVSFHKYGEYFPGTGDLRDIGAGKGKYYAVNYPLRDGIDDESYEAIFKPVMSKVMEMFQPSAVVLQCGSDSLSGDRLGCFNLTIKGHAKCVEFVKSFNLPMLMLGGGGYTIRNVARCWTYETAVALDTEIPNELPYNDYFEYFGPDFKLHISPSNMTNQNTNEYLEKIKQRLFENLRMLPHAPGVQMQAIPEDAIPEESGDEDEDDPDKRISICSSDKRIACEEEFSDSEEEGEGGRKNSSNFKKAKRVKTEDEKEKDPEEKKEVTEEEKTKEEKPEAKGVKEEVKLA

SMMC-7721 [2] = assay: Antiproliferative activity against human SMMC7721 cells assessed as reduction in cell growth incubated for 72 hrs by CCK-8 assay; format: functional, cell-based; conditions: SMMC-7721, 72 h
A549 = assay: Antiproliferative activity against human A549 cells assessed as reduction in cell growth at 2 uM incubated for 72 hrs by CCK-8 assay relative to control; format: functional; conditions: A549, 72 h
SMMC-7721 [3] = assay: Induction of apoptosis in human SMMC7721 cells assessed as early apoptotic cells at 1 uM incubated for 48 hrs by Annexin-V-FITC/propidium iodide staining based flow cytometry (Rvb=2.88%); format: functional
SMMC-7721 [4] = assay: Induction of apoptosis in human SMMC7721 cells assessed as late apoptotic cells at 0.25 uM incubated for 48 hrs by Annexin-V-FITC/propidium iodide staining based flow cytometry (Rvb=1.73%); format: functional
SMMC-7721 [5] = assay: Cell cycle arrest in human SMMC7721 cells assessed as accumulation at S phase at 4 uM incubated for 48 hrs by propidium iodide staining based flow cytometry (Rvb=6.83%); format: functional
A-375 [6] = assay: Antiproliferative activity against human A375 cells assessed as reduction in cell growth incubated for 72 hrs by CCK-8 assay; format: functional, cell-based; conditions: A-375, 72 h
NIH3T3 = assay: Cytotoxicity against mouse NIH/3T3 cells assessed as reduction in cell viability after 48 hrs by CCK8 assay; format: cell-based; conditions: NIH3T3, 48 h
A-375 [7] = assay: Antiproliferative activity against human A375 cells assessed as reduction in cell growth at 8 uM incubated for 72 hrs by CCK-8 assay relative to control; format: functional; conditions: A-375, 72 h
SMMC-7721 [8] = assay: Cell cycle arrest in human SMMC7721 cells assessed as accumulation at G0/G1 phase at 0.25 uM incubated for 48 hrs by propidium iodide staining based flow cytometry (Rvb=77%); format: functional
SMMC-7721 [9] = assay: Cell cycle arrest in human SMMC7721 cells assessed as accumulation at G2/M phase at 1 uM incubated for 48 hrs by propidium iodide staining based flow cytometry (Rvb=16.17%); format: functional
Histone deacetylase = assay: Inhibition of HDAC in human HeLa cell nuclear extract using fluor-de-lys-green as substrate preincubated for 10 mins followed by substrate addition and measured after 30 mins by fluorescence assay; format: cell-based
SMMC-7721 [10] = assay: Cell cycle arrest in human SMMC7721 cells assessed as accumulation at S phase incubated for 48 hrs by propidium iodide staining-based flow cytometry; format: functional
A-375 [11] = assay: Antiproliferative activity against human A375 cells assessed as reduction in cell growth at 2 uM incubated for 72 hrs by CCK-8 assay relative to control; format: functional; conditions: A-375, 72 h
SMMC-7721 [12] = assay: Inhibition of colony formation in human SMMC7721 cells incubated for 10 days by crystal violet staining based assay; format: functional, cell-based
[13] = target: T1, Protein deacetylase HDAC6 (Homo sapiens, UniProt Q9UBN7); assay: Inhibition of human recombinant His-tagged HDAC6 expressed in baculovirus infected insect cells using FLUOR DE LYS SIRT1 as substrate preincubated for 10 mins followed by substrate addition and measured after 30 mins by fluorescence method
T1 sequence (Q9UBN7 whole entry): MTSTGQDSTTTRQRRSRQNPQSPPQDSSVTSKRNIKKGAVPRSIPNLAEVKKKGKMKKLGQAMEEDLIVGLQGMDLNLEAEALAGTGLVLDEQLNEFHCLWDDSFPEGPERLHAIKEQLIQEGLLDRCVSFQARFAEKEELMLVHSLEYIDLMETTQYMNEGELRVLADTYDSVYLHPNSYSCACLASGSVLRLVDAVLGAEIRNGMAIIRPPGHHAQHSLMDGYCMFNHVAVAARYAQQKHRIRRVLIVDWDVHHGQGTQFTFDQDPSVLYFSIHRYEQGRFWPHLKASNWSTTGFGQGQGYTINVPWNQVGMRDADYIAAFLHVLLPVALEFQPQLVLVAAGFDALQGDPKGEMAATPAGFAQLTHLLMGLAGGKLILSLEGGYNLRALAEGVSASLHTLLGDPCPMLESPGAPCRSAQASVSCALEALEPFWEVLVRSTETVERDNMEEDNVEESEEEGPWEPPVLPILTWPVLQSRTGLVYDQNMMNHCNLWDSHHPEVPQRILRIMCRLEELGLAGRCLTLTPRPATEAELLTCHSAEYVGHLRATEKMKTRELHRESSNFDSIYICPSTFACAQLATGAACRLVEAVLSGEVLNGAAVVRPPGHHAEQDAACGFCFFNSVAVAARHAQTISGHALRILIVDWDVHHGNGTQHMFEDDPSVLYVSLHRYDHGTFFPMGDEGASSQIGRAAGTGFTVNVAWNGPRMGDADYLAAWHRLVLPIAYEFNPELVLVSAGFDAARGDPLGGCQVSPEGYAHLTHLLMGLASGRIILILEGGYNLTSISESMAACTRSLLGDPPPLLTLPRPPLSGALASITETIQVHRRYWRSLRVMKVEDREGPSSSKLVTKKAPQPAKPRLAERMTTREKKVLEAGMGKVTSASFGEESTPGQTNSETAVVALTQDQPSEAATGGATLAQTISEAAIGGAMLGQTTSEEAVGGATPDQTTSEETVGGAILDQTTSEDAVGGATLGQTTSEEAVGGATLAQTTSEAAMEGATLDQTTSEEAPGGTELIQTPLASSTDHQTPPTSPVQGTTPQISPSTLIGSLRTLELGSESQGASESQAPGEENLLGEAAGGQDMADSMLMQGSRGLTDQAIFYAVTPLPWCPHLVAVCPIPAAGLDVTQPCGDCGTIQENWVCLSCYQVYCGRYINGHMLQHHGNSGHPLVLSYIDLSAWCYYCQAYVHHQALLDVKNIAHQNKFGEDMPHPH

SMMC-7721 [14] = assay: Induction of apoptosis in human SMMC7721 cells assessed as necrotic cells at 4 uM incubated for 48 hrs by Annexin-V-FITC/propidium iodide staining based flow cytometry (Rvb=1.88%); format: functional
HeLa [15] = assay: Antiproliferative activity against human HeLa cells assessed as reduction in cell growth incubated for 72 hrs by CCK-8 assay; format: functional, cell-based
HeLa [16] = assay: Antiproliferative activity against human HeLa cells assessed as reduction in cell growth at 2 uM incubated for 72 hrs by CCK-8 assay relative to control; format: functional
SMMC-7721 [17] = assay: Induction of apoptosis in human SMMC7721 cells incubated for 48 hrs by Annexin-V-FITC/propidium iodide staining based flow cytometry; format: functional, cell-based
SMMC-7721 [18] = assay: Antiproliferative activity against human SMMC7721 cells assessed as reduction in cell growth at 8 uM incubated for 72 hrs by CCK-8 assay relative to control; format: functional; conditions: SMMC-7721, 72 h
HeLa [19] = assay: Antiproliferative activity against human HeLa cells assessed as reduction in cell growth at 8 uM incubated for 72 hrs by CCK-8 assay relative to control; format: functional

Row | SMILES | Activity (SMMC-7721 [1]) | IC50 (Histone deacetylase 1) | IC50 (SMMC-7721 [2]) | inhibition at 2 µM (A549) | Activity (SMMC-7721 [3]) | Activity (SMMC-7721 [4]) | Activity (SMMC-7721 [5]) | IC50 (A-375 [6]) | IC50 (NIH3T3) | inhibition at 8 µM (A-375 [7]) | Activity (SMMC-7721 [8]) | Activity (SMMC-7721 [9]) | inhibition at 2 µM (A-375 [11]) | inhibition (SMMC-7721 [12]) | IC50 [13] | Activity (SMMC-7721 [14]) | IC50 (HeLa [15]) | inhibition at 2 µM (HeLa [16]) | Activity (SMMC-7721 [17]) | inhibition at 8 µM (SMMC-7721 [18]) | further results
1 | Cn1c(SCc2ccc(C(=O)Nc3ccccc3N)cc2)nc2cc(Br)ccc2c1=O | 13.6% | 0.29 µM | 5.58 µM | 37.5% | 3.12% | 9.88% | 24.16% | 2.84 µM | 4.02 µM | 72.9% | 65.59% | 25.37% | 34.5% | Dose-dependent effect | > 40 µM | 15.1% | 3.97 µM | 32.3% | Dose-dependent effect | 70.6% | IC50 (Histone deacetylase): 4.94 µM; Activity (SMMC-7721 [10]): Dose-dependent effect; inhibition at 8 µM (HeLa [19]): 72.8%
2 | CCn1c(SCc2ccc(/C=C/C(=O)Nc3ccccc3N)cc2)nc2cc(OC)ccc2c1=O | 8.91% | 0.1 µM | 0.06 µM | 18.6% | 16.4% | 9.65% | 28.7% | 0.94 µM | 4.8 µM | 89.5% | 61.58% | 33.16% | 55% | Dose-dependent effect | > 40 µM | 10% | 3.41 µM | 24% | Dose-dependent effect | 79.7% | Activity (SMMC-7721 [10]): Dose-dependent effect; inhibition at 8 µM (HeLa [19]): 70.8%
3 | COc1ccc2c(=O)n(-c3ccccc3Cl)c(SCc3ccc(C(=O)Nc4ccccc4N)cc3)nc2c1 | 7.63% | 0.38 µM | 2.16 µM | 52.5% | 7.67% | 13.1% | 45.18% | 3.51 µM | 3.39 µM | 78.7% | 48.75% | 37.07% | 41.8% | Dose-dependent effect | > 40 µM | 8.28% | 1.32 µM | 54.4% | Dose-dependent effect | 84.1% | IC50 (Histone deacetylase): 0.83 µM; Activity (SMMC-7721 [10]): Dose-dependent effect; inhibition at 8 µM (HeLa [19]): 82.7%
4 | COc1ccc2c(=O)n(C)c(SCc3ccc(C(=O)Nc4ccccc4N)cc3)nc2c1 | 10.8% | 0.01 µM | 0.03 µM | 38% | 11.6% | 18.9% | 22.52% | 0.98 µM | 2.53 µM | 89.4% | 67.11% | 22.56% | 52.2% | Dose-dependent effect | > 40 µM | 10.6% | 1.49 µM | 57.5% | Dose-dependent effect | 79.3% | IC50 (Histone deacetylase): 0.99 µM; inhibition at 8 µM (HeLa [19]): 87%
